Laboratory results taken from patent US10316017B2, “COT modulators and methods of use thereof” (Gilead Sciences, Inc., priority 2015, dated 2019).
pEC50, pIC50: −log10 of the molar value.

Legend:
[1] = tested on: TNFα production in LPS-stimulated human monocytes; assay: Cot Monocyte TNFα Cell Based Assay; conditions: Homo sapiens, Monocyte, TNFα in LPS-stimulated human monocytes; read-out: EC50 TNF
How it was run: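 TR-FRET read-out of total secreted TNFα, normalized as % control (unstimulated = 0%, LPS-stimulated = 100%). Cells (5,000/well) were exposed to compound 1 h at 37 °C, then to 50 pg/ml LPS for a further 4 h.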

[2] = target: T1, human Cot catalytic domain (30-397 amino acids) (Homo sapiens, UniProt P41279); assay: High Throughput Cot Biochemical Assay (KinEASE TR-FRET); conditions: Cot KinEASE TR-FRET (HTRF) biochemical assay, 400 μM ATP; read-out: IC50 HTRF
T1 construct: Purified recombinant human Cot catalytic domain (30-397 amino acids) was purchased from Cama Biosciences; purchased Cama Biosciences (so in the source)
How it was run: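 TR-FRET readout: Eu-labeled phospho-specific antibody binds XL665-tagged STK3 peptide after phosphorylation by Cot (aa 30-397, 5 nM). Conditions: 400 μM ATP, 1 μM peptide, MOPS pH 7.0 buffer with MgOAc, DTT, BSA, NP-40, glycerol; 0.1% DMSO.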

T1 sequence (P41279 30-397): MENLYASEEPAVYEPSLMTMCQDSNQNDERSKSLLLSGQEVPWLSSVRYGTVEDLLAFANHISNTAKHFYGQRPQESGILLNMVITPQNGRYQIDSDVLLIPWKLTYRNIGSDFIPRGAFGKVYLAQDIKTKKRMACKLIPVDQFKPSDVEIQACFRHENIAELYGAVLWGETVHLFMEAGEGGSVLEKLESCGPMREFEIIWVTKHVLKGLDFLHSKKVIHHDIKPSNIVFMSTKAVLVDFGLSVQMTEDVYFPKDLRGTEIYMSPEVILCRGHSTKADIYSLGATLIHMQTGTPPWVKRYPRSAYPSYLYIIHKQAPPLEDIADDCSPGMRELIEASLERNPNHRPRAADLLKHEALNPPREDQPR

Work on `[2H]C(Nc1cc(Cl)c2ncc(C#N)c(NC(CS(C)(=O)=O)c3ccccc3)c2c1)(c1ccc(F)cc1)c1cn(C2CC2)nn1` (centres unmarked) [Example 193, 8-chloro-6-(((1-cyclopropyl-1H-1,2,3-triazol-4-yl)(4-fluorophenyl)methyl-d)amino)-4-((2-(methylsulfonyl)-1-phenylethyl)amino) quinoline-3-carbonitrile] yielded a pEC50 [1] of 6.08 and a pIC50 [2] of 7.24.

`[2H][C@](Nc1cc(C)c2ncc(C#N)c(NCC(C)(C)C)c2c1)(c1ccc(F)cc1)c1cn(C2CC2)nn1` [Example 194, (S)-6-(((1-cyclopropyl-1H-1,2,3-triazol-4-yl)(4-fluorophenyl)methyl-d)amino)-8-methyl-4-(neopentylamino) quinoline-3-carbonitrile] showed a pEC50 [1] of 5.62 and a pIC50 [2] of 6.54.

Compound `[2H][C@](Nc1cc(C(F)(F)F)c2ncc(C#N)c(N[C@H](CC)c3ccccc3)c2c1)(c1ccc(F)cc1)c1cn(C2CC2)nn1` [Example 195, 6-(((S)-(1-cyclopropyl-1H-1,2,3-triazol-4-yl)(4-fluorophenyl)methyl-d)amino)-4-(((R)-1-phenylpropyl)amino)-8-(trifluoromethyl) quinoline-3-carbonitrile] has a pEC50 [1] of 5.92 and a pIC50 [2] of 6.80.

In the case of `[2H][C@](Nc1cc(C(F)(F)F)c2ncc(C#N)c(NCC(C)(C)C)c2c1)(c1ccc(F)cc1)c1cn(C2CC2)nn1` [Example 196, (S)-6-(((1-cyclopropyl-1H-1,2,3-triazol-4-yl)(4-fluorophenyl)methyl-d)amino)-4-(neopentylamino)-8-(trifluoromethyl) quinoline-3-carbonitrile], the pEC50 [1] was 5.82 and the pIC50 [2] was 6.57.

Compound `[2H][C@@](Nc1cc(Cl)c2ncc(C#N)c(NCC(C)(C)C)c2c1)(c1cn(C2CC2)nn1)c1cccc(C#N)c1C` [Example 197, (S)-8-chloro-6-(((3-cyano-2-methylphenyl) (1-cyclopropyl-1H-1,2,3-triazol-4-yl)methyl-d)amino)-4-(neopentylamino) quinoline-3-carbonitrile] has a pEC50 [1] of 7.42 and a pIC50 [2] of 8.70.

In the case of `[2H][C@](Nc1cc(Cl)c2ncc(C#N)c(NCC3(C(F)F)CCC3)c2c1)(c1ccc(F)cc1)c1cn(C2CC2)nn1` [Example 198], the pEC50 [1] was 6.64 and the pIC50 [2] was 7.92.

`[2H][C@](Nc1cc(Cl)c2ncc(C#N)c(NCC3(C)CC(F)(F)C3)c2c1)(c1ccc(F)cc1)c1cn(C2CC2)nn1` [Example 199, (S)-8-chloro-6-(((1-cyclopropyl-1H-1,2,3-triazol-4-yl)(4-fluorophenyl)methyl-d)amino)-4-(((3,3-difluoro-1-methylcyclobutyl)methyl)amino) quinoline-3-carbonitrile] gave a pEC50 [1] of 6.40 and a pIC50 [2] of 7.68.

For `[2H][C@](Nc1cc(Cl)c2ncc(C#N)c(NC3CS(=O)(=O)C3)c2c1)(c1ccc(F)cc1)c1cn(C2CC2)nn1` [Example 200, (S)-8-chloro-6-(((1-cyclopropyl-1H-1,2,3-triazol-4-yl)(4-fluorophenyl)methyl-d)amino)-4-((1,1-dioxidothietan-3-yl)amino)quinoline-3-carbonitrile], the pEC50 [1] was 5.12 and the pIC50 [2] was 6.61.

With `[2H][C@](Nc1cc(Cl)c2ncc(C#N)c(NC3COC3)c2c1)(c1ccc(F)cc1)c1cn(C2CC2)nn1` [Example 201, (S)-8-chloro-6-(((1-cyclopropyl-1H-1,2,3-triazol-4-yl)(4-fluorophenyl)methyl-d)amino)-4-(oxetan-3-ylamino) quinoline-3-carbonitrile] the pEC50 [1] was 5.59 and the pIC50 [2] was 6.60.

For `[2H][C@](Nc1cc(C#N)c2ncc(C#N)c(N[C@H](CC#N)c3ccccc3)c2c1)(c1ccc(F)cc1)c1cn(C2CC2)nn1` [Example 202, 4-(((R)-2-cyano-1-phenylethyl)amino)-6-(((S)-(1-cyclopropyl-1H-1,2,3-triazol-4-yl)(4-fluorophenyl)methyl-d)amino)quinoline-3,8-dicarbonitrile], the pEC50 [1] was 7.36 and the pIC50 [2] was 8.70.

Compound `[2H][C@](Nc1cc(Cl)c2ncc(C#N)c(NCC3(C(F)F)CC3)c2c1)(c1ccc(F)cc1)c1cn(C2CC2)nn1` [Example 203, (S)-8-chloro-6-(((1-cyclopropyl-1H-1,2,3-triazol-4-yl)(4-fluorophenyl)methyl-d)amino)-4-(((1-(difluoromethyl)cyclopropyl)methyl)amino) quinoline-3-carbonitrile] has a pEC50 [1] of 6.22 and a pIC50 [2] of 7.42.

Compound `[2H][C@](Nc1cc(Cl)c2ncc(C#N)c(NC3CC(F)(F)C3)c2c1)(c1ccc(F)cc1)c1cn(C2CC2)nn1` [Example 204, (S)-8-chloro-6-(((1-cyclopropyl-1H-1,2,3-triazol-4-yl)(4-fluorophenyl)methyl-d)amino)-4-((3,3-difluorocyclobutyl)amino)quinoline-3-carbonitrile] has a pEC50 [1] of 5.98 and a pIC50 [2] of 7.01.

For `[2H][C@](Nc1cc(Cl)c2ncc(C#N)c(NC3CC(C)(C)C3)c2c1)(c1ccc(F)cc1)c1cn(C2CC2)nn1` [Example 205, (S)-8-chloro-6-(((1-cyclopropyl-1H-1,2,3-triazol-4-yl)(4-fluorophenyl)methyl-d)amino)-4-((3,3-dimethylcyclobutyl)amino)quinoline-3-carbonitrile], the pEC50 [1] was 6.06 and the pIC50 [2] was 7.42.

For `[2H][C@](Nc1cc(Cl)c2ncc(C#N)c(Nc3cccc(Cl)c3Cl)c2c1)(c1ccc(F)cc1)c1cn(C2CC2)nn1` [Example 206, (S)-8-chloro-6-(((1-cyclopropyl-1H-1,2,3-triazol-4-yl)(4-fluorophenyl)methyl-d)amino)-4-((2,3-dichlorophenyl)amino)quinoline-3-carbonitrile], the pEC50 [1] was 6.26 and the pIC50 [2] was 7.28.

Work on `CC(C)(C)CNc1c(C#N)cnc2c(Cl)cc(N[C@H](c3cn(C4CC4)nn3)c3ccc(F)cc3Cl)cc12` [Example 207, (S)-8-chloro-6-(((2-chloro-4-fluorophenyl) (1-cyclopropyl-1H-1,2,3-triazol-4-yl)methyl)amino)-4-(neopentylamino) quinoline-3-carbonitrile] yielded a pEC50 [1] of 6.52 and a pIC50 [2] of 7.77.

With `[2H][C@](Nc1cc(C#N)c2ncc(C#N)c(N[C@H](CC)c3ccccc3)c2c1)(c1ccc(F)cc1)c1cn(C)nn1` [Example 208, 6-(((S)-(4-fluorophenyl)(1-methyl-1H-1,2,3-triazol-4-yl)methyl-d)amino)-4-(((R)-1-phenylpropyl)amino) quinoline-3,8-dicarbonitrile] the pEC50 [1] was 7.08 and the pIC50 [2] was 8.52.

With `[2H][C@](Nc1cc(C#N)c2ncc(C#N)c(NCC(C)(C)C)c2c1)(c1ccc(F)cc1)c1cn(C)nn1` [Example 209, (S)-6-(((4-fluorophenyl)(1-methyl-1H-1,2,3-triazol-4-yl)methyl-d)amino)-4-(neopentylamino) quinoline-3,8-dicarbonitrile] the pEC50 [1] was 7.08 and the pIC50 [2] was 8.52.

For `CC[C@@H](Nc1c(C#N)cnc2c(C#N)cc(N[C@H](c3cn(C4CC4)nn3)c3ccccc3Cl)cc12)c1ccccc1` [Example 210, 6-(((S)-(2-chlorophenyl)(1-cyclopropyl-1H-1,2,3-triazol-4-yl)methyl)amino)-4-(((R)-1-phenylpropyl)amino) quinoline-3,8-dicarbonitrile], the pEC50 [1] was 6.61 and the pIC50 [2] was 8.22.

`CC(C)(C)CNc1c(C#N)cnc2c(C#N)cc(N[C@H](c3cn(C4CC4)nn3)c3ccccc3Cl)cc12` [Example 211, (S)-6-(((2-chlorophenyl)(1-cyclopropyl-1H-1,2,3-triazol-4-yl)methyl)amino)-4-(neopentylamino) quinoline-3,8-dicarbonitrile] gave a pEC50 [1] of 6.76 and a pIC50 [2] of 8.22.
